Source: the supplement of paper PMC4862054

Experiments:
CAL-120 [1] = assay: normalised viability (% of control), CellTiter-Blue; higher = more viable cells (about 100 = DMSO control); conditions: 100 nM; incubation time: 72 h
Procedure, shortened: (§1)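 384-well plates were pre-loaded with compound in 5 µl medium before 20 µl of breast cancer cell suspension was seeded. Following 72 h incubation, 2.5 µl CellTiter-Blue reagent was added for 2 h at 37 °C. Fluorescence was read at 560/590 nm and plates were normalised to vehicle (100) and a positive kill control (0), checked by Z'-factor. Normalised viability is reported at a single listed concentration of the series.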

DU-4475 [2] = assay: as above; conditions: 10 nM; incubation time: 72 h
Procedure, shortened: as §1

MDA-MB-453 [3] = assay: as above; conditions: 10 nM; incubation time: 72 h
Procedure, shortened: as §1

BT-474 = assay: as above; conditions: incubation time: 72 h
Procedure, shortened: as §1

BT-549 = assay: as above; conditions: incubation time: 72 h
Procedure, shortened: as §1

CAL-120 [4] = assay: as above; conditions: incubation time: 72 h
Procedure, shortened: as §1

CAL-148 = assay: as above; conditions: incubation time: 72 h
Procedure, shortened: as §1

CAL-51 [5] = assay: as above; conditions: incubation time: 72 h
Procedure, shortened: as §1

CAL-85-1 = assay: as above; conditions: incubation time: 72 h
Procedure, shortened: as §1

DU-4475 [6] = assay: as above; conditions: incubation time: 72 h
Procedure, shortened: as §1

HCC1143 [7] = assay: as above; conditions: incubation time: 72 h
Procedure, shortened: as §1

HCC1599 = assay: as above; conditions: incubation time: 72 h
Procedure, shortened: as §1

HCC1937 = assay: as above; conditions: incubation time: 72 h
Procedure, shortened: as §1

HDQ-P1 = assay: as above; conditions: incubation time: 72 h
Procedure, shortened: as §1

Hs578T = assay: as above; conditions: incubation time: 72 h
Procedure, shortened: as §1

MDA-MB-231 = assay: as above; conditions: incubation time: 72 h
Procedure, shortened: as §1

MDA-MB-436 = assay: as above; conditions: incubation time: 72 h
Procedure, shortened: as §1

MDA-MB-453 [8] = assay: as above; conditions: incubation time: 72 h
Procedure, shortened: as §1

MDA-MB-468 = assay: as above; conditions: incubation time: 72 h
Procedure, shortened: as §1

MFM-223 = assay: as above; conditions: incubation time: 72 h
Procedure, shortened: as §1

SK-BR-3 = assay: as above; conditions: incubation time: 72 h
Procedure, shortened: as §1

CAL-51 [9] = assay: drug sensitivity score (DSS), CellTox Green (DSS (AUC-based score)); higher = stronger drug effect (viability inhibition or cytotoxicity); extreme values may be limits of the assay; conditions: incubation time: 72 h
Procedure, shortened: (§2)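 Breast cancer cell lines were seeded in 20 µl suspension into 384-well plates already holding compound and incubated for 72 h. Each compound was tested at 5 concentrations in 10-fold steps across its own 10,000-fold range. Plates were normalised to 0.1 % DMSO and a positive kill control after CellTox Green and then CellTiter-Glo readings. The area under the fitted dose-response curve served as the basis for the drug sensitivity score.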

HCC1143 [10] = assay: as above; conditions: incubation time: 72 h
Procedure, shortened: as §2

MDA-MB-453 [11] = assay: as above; conditions: incubation time: 72 h
Procedure, shortened: as §2

Nc1ccccc1NC(=O)c1ccc(CNc2nccc(-c3cccnc3)n2)cc1 [Mocetinostat]
Conditions | drug sensitivity score | normalised viability [%]
CAL-51 [9] | 8.87 | –
CAL-120 [1] | – | 53.6
DU-4475 [2] | – | 91
HCC1143 [10] | 0.874 | –
MDA-MB-453 [3] | – | 94.2
MDA-MB-453 [11] | 0 | –

normalised viability [%]
Conditions | 3 nM | 10 nM | 30 nM | 100 nM | 1000 nM | 10000 nM
BT-474 | – | 113 | – | – | 96.8 | 25.6
BT-549 | – | 91 | – | – | 67.1 | 35.9
CAL-51 [5] | 106 | – | 96.9 | 97.7 | – | –
CAL-85-1 | 93.3 | – | 82 | 86.9 | – | –
CAL-120 [4] | – | 74.8 | – | – | 40.5 | 18.1
CAL-148 | 89.2 | – | 93.7 | 99.8 | – | –
DU-4475 [6] | 97.2 | – | 98.5 | 103 | – | –
HCC1143 [7] | – | 78.5 | – | – | 67 | 16.7
HCC1599 | – | 102 | – | – | 54.6 | 23.5
HCC1937 | – | 84.4 | – | – | 70.4 | 21.4
HDQ-P1 | 108 | – | 119 | 74 | – | –
Hs578T | – | 96.8 | – | – | 81.4 | 12.6
MDA-MB-231 | – | 85.7 | – | – | 75.7 | 22.4
MDA-MB-436 | – | 94 | – | – | 61.2 | 28.9
MDA-MB-453 [8] | 116 | – | 96.1 | 87.5 | – | –
MDA-MB-468 | – | 109 | – | – | 84.8 | 8.4
MFM-223 | – | 88 | – | – | 80.9 | 31.6
SK-BR-3 | – | 101 | – | – | 55.5 | 3.29

Cc1ccc(Nc2nccc(N(C)c3ccc4c(C)n(C)nc4c3)n2)cc1S(N)(=O)=O [Pazopanib]
Conditions | drug sensitivity score | normalised viability [%]
CAL-51 [9] | 0 | –
CAL-120 [1] | – | 81.6
DU-4475 [2] | – | 103
HCC1143 [10] | 1.06 | –
MDA-MB-453 [3] | – | 100
MDA-MB-453 [11] | 0 | –

normalised viability [%]
Conditions | 3 nM | 10 nM | 30 nM | 100 nM | 1000 nM | 10000 nM
BT-474 | – | 105 | – | – | 109 | 104
BT-549 | – | 86.8 | – | – | 86.6 | 45.6
CAL-51 [5] | 108 | – | 103 | 99.9 | – | –
CAL-85-1 | 92.2 | – | 77.8 | 95.3 | – | –
CAL-120 [4] | – | 85.5 | – | – | 91.2 | 97.5
CAL-148 | 78.5 | – | 88.9 | 82.1 | – | –
DU-4475 [6] | 97 | – | 100 | 104 | – | –
HCC1143 [7] | – | 76.5 | – | – | 101 | 60.7
HCC1599 | – | 96.5 | – | – | 115 | 104
HCC1937 | – | 86.7 | – | – | 92 | 94.3
HDQ-P1 | 107 | – | 103 | 99.2 | – | –
Hs578T | – | 117 | – | – | 98.1 | 90.8
MDA-MB-231 | – | 86.3 | – | – | 88.7 | 61.4
MDA-MB-436 | – | 97.5 | – | – | 77.4 | 77.4
MDA-MB-453 [8] | 97.7 | – | 108 | 102 | – | –
MDA-MB-468 | – | 106 | – | – | 108 | 99.4
MFM-223 | – | 86.8 | – | – | 51.8 | 58.6
SK-BR-3 | – | 98.4 | – | – | 99 | 88.1
